Assay: Potentiometric titration of dispersion pKa of couplers (two-phase aqueous dispersion)
Format: physicochemical
Text: Preferred two-equivalent magenta dye-forming couplers for the practice of this invention include those that have pKa values of less than 10.0 when dispersed together with a coupler solvent. Potentiometric titrations were used to measure pKa values for some of the preferred couplers of the invention as aqueous dispersions. In these two-phase mixtures, the term pKa denotes the aqueous buffer pH at which half of the coupler in the oil phase is ionized or ion paired. Table I lists dispersion pKa values measured with 0.50 M potassium counter ion.

[1] = coupler solvent S2, coupler:solvent weight ratio 1:2, 0.50 M potassium
[2] = coupler solvent C5, coupler:solvent weight ratio 1:1, 0.50 M potassium
[3] = coupler solvent S1, coupler:solvent weight ratio 1:1, 0.50 M potassium

SMILES	pKa(0.5M K+) [1]	pKa(0.5M K+) [2]	pKa(0.5M K+) [3]	pKa(0.5M K+) (coupler solvent C1, coupler:solvent weight ratio 1:2, 0.50 M potassium)
CCCCCCCCCCCCNS(=O)(=O)c1ccc(NC2=NN(c3c(Cl)cc(Cl)cc3Cl)C(=O)C2Sc2cc(C(C)(C)CC(C)(C)C)ccc2OCCCC)c(Cl)c1 (stereo not drawn) [Coupler M1]	8.5			
CCCCCCCCCCCCCC(=O)Nc1ccc(Cl)c(NC2=NN(c3c(Cl)cc(Cl)cc3Cl)C(=O)C2Sc2ccccc2NC(=O)C(CC)Oc2ccc(C(C)(C)CC)cc2C(C)(C)CC)c1 (stereo not drawn) [Coupler M3]		8.2	7.9	
CCCCCCCCCCCCCCCC(=O)Nc1ccc(Cl)c(NC2=NN(c3c(Cl)c(Cl)c(Cl)c(Cl)c3Cl)C(=O)C2Sc2ccccc2NC(=O)OCc2ccccc2)c1 (stereo not drawn) [Coupler M7]	7.5			
CCCCCCCCCCCCCCCCCCNS(=O)(=O)c1ccc(Cl)c(NC2=NN(c3c(Cl)cc(Cl)cc3Cl)C(=O)C2Sc2cc(C(C)C)ccc2C(C)C)c1 (stereo not drawn) [Coupler M20]	8.4			8.9

The next lines start with the values.

pKa(0.5M K+) [1]	pKa(0.5M K+) [2]	pKa(0.5M K+) [3]	pKa(0.5M K+) (coupler solvent C1, coupler:solvent weight ratio 1:2, 0.50 M potassium)	SMILES
7.9				CCCCCCCCCCCCNS(=O)(=O)c1ccc(NC2=NN(c3c(Cl)cc(Cl)cc3Cl)C(=O)C2Sc2ccccc2NC(=O)CCCCCCCCCCC)c(Cl)c1 (stereo not drawn) [Coupler M8]
	8.0	7.6		CCCCCCCCCCCCNS(=O)(=O)c1ccc(NC2=NN(c3c(Cl)cc(Cl)cc3Cl)C(=O)C2Sc2ccccc2NC(=O)C(CC)Oc2ccc(C(C)(C)CC)cc2C(C)(C)CC)c(Cl)c1 (stereo not drawn) [Coupler M4]

Reference: patent publication US5200309A, “Color photographic materials including magenta coupler, carbonamide compound and aniline or amine compound, and methods” (Eastman Kodak Company, priority 1991, dated 1993)
